Positions count from the first letter of the chain named.

Assay [1] concerns the target T1, T877A mutant androgen receptor (Homo sapiens, UniProt P10275, T878A).
T1 construct: endogenous in cells; host or cells: LNCaP-XIP
T1 sequence (P10275 1-920 T878A): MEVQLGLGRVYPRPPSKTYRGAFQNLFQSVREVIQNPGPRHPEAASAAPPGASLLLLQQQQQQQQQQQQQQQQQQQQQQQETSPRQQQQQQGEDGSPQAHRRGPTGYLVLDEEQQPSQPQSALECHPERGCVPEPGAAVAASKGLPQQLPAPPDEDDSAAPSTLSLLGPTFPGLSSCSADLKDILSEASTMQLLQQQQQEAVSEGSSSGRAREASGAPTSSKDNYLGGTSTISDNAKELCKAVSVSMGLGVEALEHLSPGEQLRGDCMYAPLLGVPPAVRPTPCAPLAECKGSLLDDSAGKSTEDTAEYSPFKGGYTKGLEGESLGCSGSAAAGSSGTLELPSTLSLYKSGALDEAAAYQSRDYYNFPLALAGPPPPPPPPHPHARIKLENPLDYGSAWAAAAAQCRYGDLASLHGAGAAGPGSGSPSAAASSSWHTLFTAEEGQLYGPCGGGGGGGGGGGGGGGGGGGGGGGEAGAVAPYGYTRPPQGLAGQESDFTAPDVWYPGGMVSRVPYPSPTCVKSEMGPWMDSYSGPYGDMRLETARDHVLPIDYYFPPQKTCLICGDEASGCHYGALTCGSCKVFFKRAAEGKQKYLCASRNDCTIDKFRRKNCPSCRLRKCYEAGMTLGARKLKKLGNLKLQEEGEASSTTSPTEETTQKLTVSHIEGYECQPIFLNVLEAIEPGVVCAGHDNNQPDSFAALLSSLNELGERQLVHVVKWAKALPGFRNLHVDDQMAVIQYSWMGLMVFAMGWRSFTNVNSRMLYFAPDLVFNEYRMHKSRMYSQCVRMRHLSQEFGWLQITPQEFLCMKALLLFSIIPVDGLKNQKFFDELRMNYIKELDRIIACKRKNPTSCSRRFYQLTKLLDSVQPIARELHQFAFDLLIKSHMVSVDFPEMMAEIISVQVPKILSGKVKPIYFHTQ
Briefly: FKBP51 endogenous gene expression in LNCaP-XIP cells. Format: cell-based. From the text:
FIG. 44 depicts data for dose-dependent inhibition of androgen receptor-dependent endogenous gene expression of FKBP51 by Compound 1 of Example IV in LNCaP cells producing exclusively T877A mutant androgen receptor (LNCaP-XIP) and LNCaP cells transfected with wild type androgen receptor (LNCaP-androgen receptor, ratio of wild type to T877A receptor is ca. 3:1).
To more fully characterize the selectivity of compound 1 for the mutant receptor, we measured its inhibitory potential against the WT and T877A mutant receptor in an AR-dependent luciferase transcription assay in CV-1 cells (FIGS. 43A and B).

Another assay deals with LNCaP cells. In words: LNCaP cell proliferation.
In a further assay the test system is VCaP cells. In words: VCaP cell proliferation. The format is cell-based.
In the next assay the target is T2, AR (Homo sapiens, UniProt P10275).
T2 sequence (P10275 1-920): T1 sequence (P10275 1-920 T878A) with A878T
In words: Western blot analysis of AR degradation. Format: cell-based. For orientation: Immunoblotting shows a protein as a band on a membrane.

Take `COc1cc([C@H]2[C@H](c3ccccc3)[C@H](c3cc(OC)nc(OC)n3)[C@H]2c2ccccc2)nc(OC)n1` [CB-22]: the “concentration at which maximal inhibition is obtained” value in assay [1] (FKBP51 expression, T877A mutant receptor) stood at 2 µM. The “inhibition of FKBP51 gene expression” value in assay [1] (LNCaP-XIP, 2 μM) is reported as “complete inhibition”. Also, in the assay on LNCaP cells (LNCaP vs VCaP), the “more potent in LNCaP cells than in VCaP cells (anti-proliferative activity)” value was 10-15 fold. The “inhibition of LNCaP cell proliferation” value in the assay with LNCaP cells (androgen-stimulated LNCaP cells) is reported as “slow cell-growth in a dose-dependent manner”. The “inhibition of VCaP cell proliferation” value in the assay with VCaP cells is listed as “slow cell-growth in a dose-dependent manner”. On AR, the “rate of receptor proteolysis” value is “does not influence the rate of receptor proteolysis”.

For the origin of these results see patent US9868705B2, “Tetra-aryl cyclobutane inhibitors of androgen receptor action for the treatment of hormone refractory cancer” (The Board of Trustees of the University of Illinois, priority 2013, dated 2018).
